Results on one compound are retold here after publication PMC12903857.

SMILES strings stand for the structures. Several values for one entry are separate records, joined by “and”; a condition that tells them apart may be missing. Identical values can stand only once.

Experiment [1] addresses 14-3-3σ/KC1A (Homo sapiens, UniProt P31947). As to the kind of experiment: FA compound titration follow-up from selectivity panel.
Method: (§1) concentraton (50 μM, maximum eﬀect) was used.
giving the anisotropy change (ΔAU ) .
sele tme: 0 ms, gain: optmal).
For experiment [2], the system named is C-RAF/C-RAF. The conditions noted are these: with N-RAS Q61L; 100% = DMSO mBU.
Method: We aimed to study potential effects of the molecular glues on RAF-dimer formation using a NanoBRET assay.
All compound treatments were 24 hours.
The target in experiment [3] is T1, 14-3-3σ/C-RAF (Homo sapiens, UniProt P31947). As to the kind of experiment: cell-based.
Target sequence in this assay (P31947 whole entry): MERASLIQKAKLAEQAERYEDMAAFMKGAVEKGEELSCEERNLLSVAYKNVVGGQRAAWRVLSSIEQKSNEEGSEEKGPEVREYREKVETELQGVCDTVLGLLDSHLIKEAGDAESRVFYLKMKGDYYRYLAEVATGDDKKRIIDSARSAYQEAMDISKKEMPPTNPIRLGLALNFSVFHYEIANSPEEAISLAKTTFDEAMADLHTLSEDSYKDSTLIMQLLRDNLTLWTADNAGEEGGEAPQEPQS
Target sequence in this assay (P04049 whole entry partner): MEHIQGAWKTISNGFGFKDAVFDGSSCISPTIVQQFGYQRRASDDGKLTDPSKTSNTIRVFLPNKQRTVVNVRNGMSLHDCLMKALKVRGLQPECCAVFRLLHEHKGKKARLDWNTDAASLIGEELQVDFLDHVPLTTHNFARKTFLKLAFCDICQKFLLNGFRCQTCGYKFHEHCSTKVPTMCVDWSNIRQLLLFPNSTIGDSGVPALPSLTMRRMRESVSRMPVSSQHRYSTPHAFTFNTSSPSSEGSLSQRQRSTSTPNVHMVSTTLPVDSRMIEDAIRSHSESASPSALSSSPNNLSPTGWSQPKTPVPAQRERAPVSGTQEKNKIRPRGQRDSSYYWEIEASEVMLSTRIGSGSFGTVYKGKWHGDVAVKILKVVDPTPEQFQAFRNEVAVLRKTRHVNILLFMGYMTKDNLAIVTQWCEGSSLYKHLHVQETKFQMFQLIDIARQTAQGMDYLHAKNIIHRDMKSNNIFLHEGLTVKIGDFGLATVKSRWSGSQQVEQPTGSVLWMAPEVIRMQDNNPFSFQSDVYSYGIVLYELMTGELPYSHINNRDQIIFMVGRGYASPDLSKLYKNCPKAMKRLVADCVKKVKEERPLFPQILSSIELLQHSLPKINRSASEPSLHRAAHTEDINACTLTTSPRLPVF
Method: Stabilization of the interaction with a molecular glue was expected to lead to an increase in the intensity of the BRET signal.
Both cell lines were grown in
All compound treatments were 24 hours.
Brieﬂy, HEK293T cells were
For experiment [4], the target named is 14-3-3σ/TSC2 (Homo sapiens, UniProt P31947). As to the kind of experiment: FA compound titration follow-up from selectivity panel.
Method: as §1
giving the anisotropy change (ΔAU ) .
sele tme: 0 ms, gain: optmal).
Experiment [5] concerns the target T2, 14-3-3σ/C-RAF259 (Homo sapiens, UniProt P31947). Described as above.
Method: as §1
giving the anisotropy change (ΔAU ) .
sele tme: 0 ms, gain: optmal).
Experiment [6] has as its target 14-3-3σ/B-RAF (Homo sapiens, UniProt P31947).
In experiment [7] the test system is B-RAF/C-RAF. As to the kind of experiment: NanoBRET for heterodimer formation B-RAF/C-RAF.
Experiment [8] relates to 80 peptides representing a diverse set of 14-3-3 clients. Description: FA selectivity panel, single point. As to conditions: 10.5 μM compound, 100 nM client peptides, overnight; hit = change in anisotropy of more than 15 units.
Method: as §1
giving the anisotropy change (ΔAU ) .
sele tme: 0 ms, gain: optmal).
The subject of experiment [9] is pERK. Description: Lumit immunoassay for pERK levels in HEK293T cells. It is filed as cell-based. The conditions noted are these: Homo sapiens, HEK-293T; HEK293T, 14-3-3σ and C-RAF transfected, 24 h, EGF stimulation.
The target of experiment [10] is 14-3-3σ/TAZ (Homo sapiens, UniProt P31947). As to the kind of experiment: FA compound titration follow-up from selectivity panel.
Method: as §1
giving the anisotropy change (ΔAU ) .
sele tme: 0 ms, gain: optmal).
In experiment [11] the target is 14-3-3σ/SOS1 (Homo sapiens, UniProt P31947). The description is as above.
Method: as §1
giving the anisotropy change (ΔAU ) .
sele tme: 0 ms, gain: optmal).
Experiment [12] relates to N-RAS Q61L/C-RAF. As to conditions: HEK293T; 100% = DMSO mBU, 0% = N-RAS/C-RAF R89L.
In experiment [13] the target is T1, 14-3-3σ/C-RAF.
Target sequence in this assay (P31947 whole entry, other chains not shown): as the sequence (P31947 whole entry) above
Experiment [14] deals with A-RAF/C-RAF. Description: NanoBRET for heterodimer formation A-RAF/C-RAF.
In experiment [15] the target is T2, 14-3-3σ/C-RAF259. As to the kind of experiment: Fluorescence anisotropy (FA) compound titration. The format is binding. As to conditions: 10 nM C-RAF259-FAM 10-mer, 5 μΜ 14-3-3σ, overnight; read-out: Compound titrations EC50 value C-RAF259.
The target of experiment [16] is 14-3-3σ/A-RAF (Homo sapiens, UniProt P31947).
Experiment [17] has as its system pERK. As to the kind of experiment: Lumit immunoassay for pERK with 14-3-3 C38N mutant. It is filed as cell-based. As to conditions: HEK293T.
The mark [18] stands for this setting: 14-3-3σ covalently bound to compound, Replicate 1 and 2.

Chain of 14-3-3σ/B-RAF (P31947 whole entry, other chains not shown): as the sequence (P31947 whole entry) above
Chain of 14-3-3σ/A-RAF (P31947 whole entry, other chains not shown): as the sequence (P31947 whole entry) above
T2 sequence (P31947 whole entry, other chains not shown): as the sequence (P31947 whole entry) above
Chain of 14-3-3σ/KC1A (P31947 whole entry, other chains not shown): as the sequence (P31947 whole entry) above
Chain of 14-3-3σ/TSC2 (P31947 whole entry, other chains not shown): as the sequence (P31947 whole entry) above
Chain of 14-3-3σ/SOS1 (P31947 whole entry, other chains not shown): as the sequence (P31947 whole entry) above
Chain of 14-3-3σ/TAZ (P31947 whole entry, other chains not shown): as the sequence (P31947 whole entry) above

As for `O=C(CCl)NCC1CCN(S(=O)(=O)c2ccc(I)cc2)CC1` [Compound 23], the EC50 in experiment [1] is 38.1 µM; in experiment [3], 180 nM; in experiment [4] it was 19.2 µM; in experiment [5], 5.1 µM; in experiment [10], 11.7 µM; in [11] it was 24.2 µM. In addition, the EC50 in experiment [15] is 1000 ± 500 nM. In experiment [2], the “decrease in C-RAF homodimer formation” value amounted to 47%. For the same compound, the “ka, single replicates, B-RAF 12-mer” value in experiment [6] (setting [18]) is 9.53e+06 M⁻¹ s⁻¹ and 8.53e+06 M⁻¹ s⁻¹. Also, the “kd, single replicates, B-RAF 12-mer” value in [6] (setting [18]) is 0.0572 s⁻¹ and 0.0569 s⁻¹. For the same compound, the “affinity increase, B-RAF” value in experiment [6] (vs binary interaction) was 400 fold. For the same compound, the “decrease of the B-RAF/C-RAF dimer” value in [7] is 15%. Besides, in experiment [8], the “clients emerged as hits” value is recorded as “four”. Moreover, in [9], 4.4 µM corresponded to half-maximal inhibition (IC50). Moreover, the “reduction of the N-RAS Q61L/C-RAF interaction” value in [12] came to 75%. In addition, the “ka, single replicates, C-RAF 12-mer” value in experiment [13] (setting [18]) is 1.12e+07 M⁻¹ s⁻¹ and 1.09e+07 M⁻¹ s⁻¹. Moreover, in experiment [13] (setting [18]), the “kd, single replicates, C-RAF 12-mer” value is 0.0131 s⁻¹ and 0.0133 s⁻¹. Also, the “affinity increase, C-RAF” value in experiment [13] (vs binary interaction) is 2000 fold. Further, the “decrease of the A-RAF/C-RAF interaction” value in [14] is 23%. The “ka, single replicates, A-RAF 12-mer” value in experiment [16] (setting [18]) was 1.25e+07 M⁻¹ s⁻¹ and 1.02e+07 M⁻¹ s⁻¹. Also, the “kd, single replicates, A-RAF 12-mer” value in [16] (setting [18]) was 0.0189 s⁻¹ and 0.0196 s⁻¹. For the same compound, in [16] (vs binary interaction), the “affinity increase, A-RAF” value was found to be 1000 fold. Also, the “effect on pERK with the C38N mutant” value in [17] is on record as “No effect”.
